Assay results from patent publication US20160220569A1, “CDK4/6 Inhibitor Dosage Formulations For The Protection Of Hematopoietic Stem And Progenitor Cells During Chemotherapy” (G1 Therapeutics, Inc., priority 2015, published 2016).
Values joined by “and” are separate entries in the source; they are usually repeats but may differ in a detail not shown here. Identical values can stand only once. Like-named read-outs stand apart in the source and are kept apart here.

Experiment: Topotecan PK following Compound 1 infusion
Type: in vivo, human
Details: human, plasma, intravenous
Method: Blood samples were obtained prior to dosing, at the end of the 30-minute infusion (EOI), and at 0.5, 1, 1.5, 2, 2.5, 4, 6, 8, and 24 hours after the end of infusion. Analysis of plasma concentration versus time data for calculation of standard pharmacokinetic (PK) parameters following intravenous infusion administration was conducted using Phoenix WinNonlin version 6.3 using a nominal infusion duration and scheduled blood sampling times. In Cohort 2 there were 3 subjects who received 1.25 mg/m^2 of topotecan once daily on Days 1 to 5. In Cohort 3 there were 4 subjects who received 0.75 mg/m^2 of topotecan once daily on Days 1 to 5.

With `CC[C@@]1(O)C(=O)OCc2c1cc1n(c2=O)Cc2cc3c(CN(C)C)c(O)ccc3nc2-1.Cl` [topotecan, (S)-10-[(dimethylamino)methyl]-4-ethyl-4,9-dihydroxy-1H-pyrano[3′,4′:6,7]indolizino[1,2-b]quinoline-3,14(4H,12H)-dione monohydrochloride] the Cmax (Topotecan 0.75 mg/m^2 (Cohort 3) with Compound 1 200 mg/m^2, Day 1, Mean, read-out: Cmax) was 27.3 ng/mL, the half-life (Topotecan 0.75 mg/m^2 (Cohort 3) with Compound 1 200 mg/m^2, Day 1, Mean, read-out: t½ (converted)) was 4.33 h and the AUC (Topotecan 0.75 mg/m^2 (Cohort 3) with Compound 1 200 mg/m^2, Day 1, Median, read-out: AUC24.5) was 89.1 ng·h/mL. The AUC(0-inf) (Topotecan 0.75 mg/m^2 (Cohort 3) with Compound 1 200 mg/m^2, Day 1, Median, read-out: AUCinf (converted)) was 90.8 ng·h/mL and 0.198 µM·h, the AUC (Topotecan 0.75 mg/m^2 (Cohort 3) with Compound 1 200 mg/m^2, Day 1, Median, read-out: AUCx5 (converted)) was 0.992 µM·h and the Cmax (Topotecan 0.75 mg/m^2 (Cohort 3) with Compound 1 200 mg/m^2, Day 1, Median, read-out: Cmax) was 26.4 ng/mL. The half-life (Topotecan 0.75 mg/m^2 (Cohort 3) with Compound 1 200 mg/m^2, Day 1, Median, read-out: t½ (converted)) was 4.3 h, the AUC (Topotecan 0.75 mg/m^2 (Cohort 3) with Compound 1 200 mg/m^2, Day 1, individual subjects, read-out: AUC24.5) was 83.5 ng·h/mL and the AUC(0-inf) (Topotecan 0.75 mg/m^2 (Cohort 3) with Compound 1 200 mg/m^2, Day 1, individual subjects, read-out: AUCinf (converted)) was 84.8 ng·h/mL and 0.185 µM·h. The AUC (Topotecan 0.75 mg/m^2 (Cohort 3) with Compound 1 200 mg/m^2, Day 1, individual subjects, read-out: AUCx5 (converted)) was 0.927 µM·h, the half-life (Topotecan 0.75 mg/m^2 (Cohort 3) with Compound 1 200 mg/m^2, Day 1, individual subjects, read-out: t½ (converted)) was 4.32 h and the AUC (Topotecan 0.75 mg/m^2 (Cohort 3) with Compound 1 200 mg/m^2, Day 4, Mean, read-out: AUCτ (converted)) was 92.4 ng·h/mL and 0.202 µM·h. The Cmax (Topotecan 0.75 mg/m^2 (Cohort 3) with Compound 1 200 mg/m^2, Day 4, Mean, read-out: Cmax) was 24.5 ng/mL, the half-life (Topotecan 0.75 mg/m^2 (Cohort 3) with Compound 1 200 mg/m^2, Day 4, Mean, read-out: t½ (converted)) was 4.78 h and the AUC (Topotecan 0.75 mg/m^2 (Cohort 3) with Compound 1 200 mg/m^2, Day 4, Median, read-out: AUCτ (converted)) was 91.7 ng·h/mL and 0.2 µM·h. For the same molecule, the Cmax (Topotecan 0.75 mg/m^2 (Cohort 3) with Compound 1 200 mg/m^2, Day 4, Median, read-out: Cmax) was 24.5 ng/mL, the half-life (Topotecan 0.75 mg/m^2 (Cohort 3) with Compound 1 200 mg/m^2, Day 4, Median, read-out: t½ (converted)) was 4.7 h and the AUC (Topotecan 0.75 mg/m^2 (Cohort 3) with Compound 1 200 mg/m^2, Day 4, individual subjects, read-out: AUCτ (converted)) was 83.7 ng·h/mL and 0.183 µM·h. It also gave a Cmax (Topotecan 0.75 mg/m^2 (Cohort 3) with Compound 1 200 mg/m^2, Day 4, individual subjects, read-out: Cmax) of 26.4 ng/mL, a half-life (Topotecan 0.75 mg/m^2 (Cohort 3) with Compound 1 200 mg/m^2, Day 4, individual subjects, read-out: t½ (converted)) of 4.63 h and an AUC (Topotecan 1.25 mg/m^2 (Cohort 2) with Compound 1 200 mg/m^2, Day 1, Mean, read-out: AUC24.5) of 175 ng·h/mL. For the same molecule, the AUC(0-inf) (Topotecan 1.25 mg/m^2 (Cohort 2) with Compound 1 200 mg/m^2, Day 1, Mean, read-out: AUCinf (converted)) was 180 ng·h/mL and 0.392 µM·h, the AUC (Topotecan 1.25 mg/m^2 (Cohort 2) with Compound 1 200 mg/m^2, Day 1, Mean, read-out: AUCx5 (converted)) was 1.97 µM·h and the Cmax (Topotecan 1.25 mg/m^2 (Cohort 2) with Compound 1 200 mg/m^2, Day 1, Mean, read-out: Cmax) was 63.7 ng/mL. The half-life (Topotecan 1.25 mg/m^2 (Cohort 2) with Compound 1 200 mg/m^2, Day 1, Mean, read-out: t½ (converted)) was 4.93 h, the AUC (Topotecan 1.25 mg/m^2 (Cohort 2) with Compound 1 200 mg/m^2, Day 1, Median, read-out: AUC24.5) was 159 ng·h/mL and the AUC(0-inf) (Topotecan 1.25 mg/m^2 (Cohort 2) with Compound 1 200 mg/m^2, Day 1, Median, read-out: AUCinf (converted)) was 162 ng·h/mL and 0.355 µM·h. The AUC (Topotecan 1.25 mg/m^2 (Cohort 2) with Compound 1 200 mg/m^2, Day 1, Median, read-out: AUCx5 (converted)) was 1.77 µM·h, the Cmax (Topotecan 1.25 mg/m^2 (Cohort 2) with Compound 1 200 mg/m^2, Day 1, Median, read-out: Cmax) was 57.7 ng/mL and the half-life (Topotecan 1.25 mg/m^2 (Cohort 2) with Compound 1 200 mg/m^2, Day 1, Median, read-out: t½ (converted)) was 4.92 h. The half-life (Topotecan 1.25 mg/m^2 (Cohort 2) with Compound 1 200 mg/m^2, Day 1, individual subjects, read-out: t½ (converted)) was 4.78 h, the AUC (Topotecan 1.25 mg/m^2 (Cohort 2) with Compound 1 200 mg/m^2, Day 4, Mean, read-out: AUCτ (converted)) was 171 ng·h/mL and 0.375 µM·h and the Cmax (Topotecan 1.25 mg/m^2 (Cohort 2) with Compound 1 200 mg/m^2, Day 4, Mean, read-out: Cmax) was 59.6 ng/mL. For the same molecule, the AUC (Topotecan 1.25 mg/m^2 (Cohort 2) with Compound 1 200 mg/m^2, Day 4, Median, read-out: AUCτ (converted)) was 158 ng·h/mL and 0.345 µM·h, the Cmax (Topotecan 1.25 mg/m^2 (Cohort 2) with Compound 1 200 mg/m^2, Day 4, Median, read-out: Cmax) was 41.8 ng/mL and the half-life (Topotecan 1.25 mg/m^2 (Cohort 2) with Compound 1 200 mg/m^2, Day 4, Median, read-out: t½ (converted)) was 5.39 h. For the same molecule, the AUC (Topotecan 1.25 mg/m^2 (Cohort 2) with Compound 1 200 mg/m^2, Day 4, individual subjects, read-out: AUCτ (converted)) was 158 ng·h/mL and 0.345 µM·h, the half-life (Topotecan 1.25 mg/m^2 (Cohort 2) with Compound 1 200 mg/m^2, Day 4, individual subjects, read-out: t½ (converted)) was 5.39 h and the AUC (Topotecan […]^2 (Cohort 1) with Compound 1 200 mg/m^2, Day 1, Mean, read-out: AUC24.5) was 150 ng·h/mL. It also gave an AUC (Topotecan […]^2 (Cohort 1) with Compound 1 200 mg/m^2, Day 1, Mean, read-out: AUCx5 (converted)) of 1.66 µM·h, a Cmax (Topotecan […]^2 (Cohort 1) with Compound 1 200 mg/m^2, Day 1, Mean, read-out: Cmax) of 69.5 ng/mL and a half-life (Topotecan […]^2 (Cohort 1) with Compound 1 200 mg/m^2, Day 1, Mean, read-out: t½ (converted)) of 4.33 h. It also gave an AUC (Topotecan […]^2 (Cohort 1) with Compound 1 200 mg/m^2, Day 1, Median, read-out: AUC24.5) of 150 ng·h/mL, an AUC (Topotecan […]^2 (Cohort 1) with Compound 1 200 mg/m^2, Day 1, Median, read-out: AUCx5 (converted)) of 1.66 µM·h and a Cmax (Topotecan […]^2 (Cohort 1) with Compound 1 200 mg/m^2, Day 1, Median, read-out: Cmax) of 69.5 ng/mL. The half-life (Topotecan […]^2 (Cohort 1) with Compound 1 200 mg/m^2, Day 1, Median, read-out: t½ (converted)) was 4.33 h, the AUC (Topotecan […]^2 (Cohort 1) with Compound 1 200 mg/m^2, Day 1, individual subjects, read-out: AUC24.5) was 130 ng·h/mL and the AUC (Topotecan […]^2 (Cohort 1) with Compound 1 200 mg/m^2, Day 1, individual subjects, read-out: AUCx5 (converted)) was 1.44 µM·h. For the same molecule, the half-life (Topotecan […]^2 (Cohort 1) with Compound 1 200 mg/m^2, Day 1, individual subjects, read-out: t½ (converted)) was 4.56 h, the Cmax (Topotecan […]^2 (Cohort 1) with Compound 1 200 mg/m^2, Day 4, Mean, read-out: Cmax) was 89.3 ng/mL and the half-life (Topotecan […]^2 (Cohort 1) with Compound 1 200 mg/m^2, Day 4, Mean, read-out: t½ (converted)) was 4.87 h. For the same molecule, the Cmax (Topotecan […]^2 (Cohort 1) with Compound 1 200 mg/m^2, Day 4, Median, read-out: Cmax) was 89.3 ng/mL, the half-life (Topotecan […]^2 (Cohort 1) with Compound 1 200 mg/m^2, Day 4, Median, read-out: t½ (converted)) was 4.87 h and the half-life (Topotecan […]^2 (Cohort 1) with Compound 1 200 mg/m^2, Day 4, individual subjects, read-out: t½ (converted)) was 5.11 h. For the same molecule, the AUC(0-inf) (topotecan 0.75 mg/m^2 (Cohort 3) after Compound 1 200 mg/m^2, Day 1, mean, read-out: AUCinf averaged) was 94.4 ng·h/mL, the Cmax (topotecan 0.75 mg/m^2 (Cohort 3) after Compound 1 200 mg/m^2, Day 1, mean, read-out: Cmax averaged) was 27.3 ng/mL and the half-life (topotecan 0.75 mg/m^2 (Cohort 3) after Compound 1 200 mg/m^2, Day 1, mean, read-out: Half-lives averaged (converted)) was 4.33 h. It also gave a Cmax (topotecan 0.75 mg/m^2 (Cohort 3) after Compound 1 200 mg/m^2, Day 4, mean, read-out: Cmax averaged) of 24.5 ng/mL, an AUC(0-inf) (topotecan 1.25 mg/m^2 (Cohort 2) after Compound 1 200 mg/m^2, Day 1, mean, read-out: AUCinf averaged) of 180 ng·h/mL and a Cmax (topotecan 1.25 mg/m^2 (Cohort 2) after Compound 1 200 mg/m^2, Day 1, mean, read-out: Cmax averaged) of 63.7 ng/mL. It also gave a half-life (topotecan 1.25 mg/m^2 (Cohort 2) after Compound 1 200 mg/m^2, Day 1, mean, read-out: Half-lives averaged (converted)) of 4.93 h, a Cmax (topotecan 1.25 mg/m^2 (Cohort 2) after Compound 1 200 mg/m^2, Day 4, mean, read-out: Cmax averaged) of 59.6 ng/mL and an AUC(0-inf) (topotecan […]^2 (Cohort 1) after Compound 1 200 mg/m^2, Day 1, mean, read-out: AUCinf averaged) of 152 ng·h/mL. The Cmax (topotecan […]^2 (Cohort 1) after Compound 1 200 mg/m^2, Day 1, mean, read-out: Cmax averaged) was 69.5 ng/mL, the half-life (topotecan […]^2 (Cohort 1) after Compound 1 200 mg/m^2, Day 1, mean, read-out: Half-lives averaged (converted)) was 4.33 h and the Cmax (topotecan […]^2 (Cohort 1) after Compound 1 200 mg/m^2, Day 4, mean, read-out: Cmax averaged) was 89.3 ng/mL. It also gave a half-life (read-out: t½ (converted)) of 5.45 h.
